# According to patent publication EP4574149A1, “COMPOSITION OF RAPAMYCIN, DIMETHYLSULPHOXIDE AND WATER FOR USE IN THE TREATMENT OF FATTY LIVER DISEASE” (Assistance Publique - Hôpitaux de Paris, priority 2023, dated 2025):
# How the values were obtained:
# [1] = system: hépatocytes; experiment: Defatting effect of rapamycin on hepatocyte cultures (Example 2); format: cell-based; conditions: rapamycine 200nM, hepatocytes, read-out: diminution du taux de triglycérides intracellulaires par rapport au contrôle
# Method: (§1) La rapamycine a été évaluée sur des cultures d'hépatocytes et sur tissus hépatiques (tranches de foies permettant de garder la structure hépatique). Pour une concentration de rapamycine à 200nM, il était observé une diminution de 19% du taux de triglycérides intracellulaires par rapport au contrôle dans les hépatocytes et de 38% dans les tissus hépatiques. Ces résultats répétés plusieurs fois ont permis de confirmer la preuve de concept de l'effet de la rapamycine sur l'effet « dégraissant ».
# [2] = system: foies humains; experiment: Perfusion circuit with steatotic human livers: intracellular triglycerides and pharmacokinetics; conditions: for diminution du taux de triglycérides intra cellulaires: steatosis > 50%
# From the text: De la même manière, l'expérience a été réalisée avec deux foies humains jugés non transplantables et utilisés à visée scientifique après autorisation de l'Agence de Biomédecine. […] L'évaluation de la viabilité de ces deux organes ont été faites selon des critères validés en pratique clinique. […] Pour ce faire, les triglycérides intra cellulaires ont été dosés.
# [3] = Solubility study of rapamycin in DMSO/H2O mixtures; format: physicochemical
# Method: Une étude de solubilité a été réalisée sur des mélanges DMSO/H2O, de 40% à 100% (v/v) en DMSO et des concentrations en rapamycine comprises entre 0,4 et 4 mg/mL.
# L'évaluation de la solubilisation de rapamycine en fonction de différentes concentrations de DMSO est présentée au Tableau 3 ci-dessous : Tableau 3 : Evaluation de la solubilisation de rapamycine en fonction de différentes concentrations de DMSO.
# A la suite de ces résultats, une nouvelle étude a été lancée sur un intervalle plus restreint en DMSO, avec 3 niveaux de concentrations (70%; 85%; 100%) et les 3 mêmes niveaux de rapamycine (0,4; 1; 4 mg/mL) (Tableau 4). Tableau 4 : Evaluation de la solubilisation de rapamycine dans des concentrations de DMSO à 70%, 85% et 100%.
# [4] = Perfusion circuit without organ: rapamycin concentration in whole blood perfusate; format: in vitro ADME, humain; conditions: whole human blood perfusate at 37°C, no organ; theoretical target 180 ng/mL; 4 experiments
# Method: Une machine de perfusion hépatique a été utilisée avec du perfusat constitué de sang total humain maintenu à 37°C. La rapamycine a été injectée directement dans le circuit de perfusion. Des prélèvements étaient réalisés à intervalles réguliers pour doser la molécule. L'expérience a été réalisée 4 fois, l'objectif étant de valider la concentration cible théorique de 180 ng/mL définie à partir des études précédentes d'efficacité et de toxicité.
# [5] = system: tissus hépatiques; experiment: Defatting effect of rapamycin on hepatic tissues, liver slices (Example 2); format: cell-based; conditions: rapamycine 200nM, read-out: diminution du taux de triglycérides intracellulaires par rapport au contrôle
# Method: as §1
# [6] = in DMSO (Simamora P et al., 2001); cited from earlier work
# [7] = Perfusion circuit with pig liver: pharmacokinetics of rapamycin; format: in vitro ADME, cochon; conditions: pig liver on perfusion machine
# Method: Le même protocole de perfusion a été utilisé mais avec un foie animal. Celui-ci a été prélèvé chez un cochon en arrêt cardiaque puis préservé dans de la glace. Il a ensuite été mis sur machine de perfusion, initialement en hypothermie (4°C) pendant 2 heures puis à 37°C pendant 12 heures avec une phase de réchauffement intermédiaire (sub normothermie, 21°C). La rapamycine était injectée dans le circuit 2 heures après le début de la phase de normothermie. Neuf expériences ont été réalisées. L'objectif était d'avoir une étude pharmacocinétique de la rapamycine.
smiles,measurement,setting,value
"CO[C@H]1C[C@@H]2CC[C@@H](C)[C@@](O)(O2)C(=O)C(=O)N2CCCC[C@H]2C(=O)O[C@H]([C@H](C)C[C@@H]2CC[C@@H](O)[C@H](OC)C2)CC(=O)[C@H](C)/C=C(\C)[C@@H](O)[C@@H](OC)C(=O)[C@H](C)C[C@H](C)/C=C/C=C/C=C/1C [Rapamycine, rapamycine]",inhibition at 0.2 µM,[1],19%
same,diminution du taux de triglycérides intra cellulaires,"[2]; foie N°1, 9 heures after injection of rapamycin",39%
same,diminution du taux de triglycérides intra cellulaires,[2]; foie N°2,31%
same,pharmacocinétique,[2]; human livers on perfusion machine,identique à celle observée lors de la perfusion des foies de cochon
same,Solubilité à température ambiante,"[3]; DMSO/H2O 40 % volumique, [Rapamycine] 0,4 mg/mL",Non (aspect laiteux avec cristaux
same,Solubilité à température ambiante,"[3]; DMSO/H2O 40 % volumique, [Rapamycine] 1 mg/mL",Non (aspect laiteux avec cristaux
same,Solubilité à température ambiante,"[3]; DMSO/H2O 40 % volumique, [Rapamycine] 4 mg/mL",Non (aspect laiteux avec cristaux
same,Solubilité à température ambiante,"[3]; DMSO/H2O 60 % volumique, [Rapamycine] 0,4 mg/mL",Oui
same,Solubilité à température ambiante,"[3]; DMSO/H2O 60 % volumique, [Rapamycine] 1 mg/mL",Oui
same,Solubilité à température ambiante,"[3]; DMSO/H2O 60 % volumique, [Rapamycine] 4 mg/mL",Non (aspect laiteux avec cristaux
same,Solubilité à température ambiante,"[3]; DMSO/H2O 80 % volumique, [Rapamycine] 0,4 mg/mL",Oui
same,Solubilité à température ambiante,"[3]; DMSO/H2O 80 % volumique, [Rapamycine] 1 mg/mL",Oui
same,Solubilité à température ambiante,"[3]; DMSO/H2O 80 % volumique, [Rapamycine] 4 mg/mL",Oui
same,Solubilité à température ambiante,"[3]; DMSO/H2O 100 % volumique, [Rapamycine] 0,4 mg/mL",Oui
same,Solubilité à température ambiante,"[3]; DMSO/H2O 100 % volumique, [Rapamycine] 1 mg/mL",Oui
same,Solubilité à température ambiante,"[3]; DMSO/H2O 100 % volumique, [Rapamycine] 4 mg/mL",Oui
same,Solubilité à température ambiante,"[3]; second study (Tableau 4), DMSO/H2O 70 % volumique, [Rapamycine] 0,4 mg/mL",Oui
same,Solubilité à température ambiante,"[3]; second study (Tableau 4), DMSO/H2O 70 % volumique, [Rapamycine] 1 mg/mL",Oui
same,Solubilité à température ambiante,"[3]; second study (Tableau 4), DMSO/H2O 70 % volumique, [Rapamycine] 4 mg/mL",Oui
same,Solubilité à température ambiante,"[3]; second study (Tableau 4), DMSO/H2O 85 % volumique, [Rapamycine] 0,4 mg/mL",Oui
same,Solubilité à température ambiante,"[3]; second study (Tableau 4), DMSO/H2O 85 % volumique, [Rapamycine] 1 mg/mL",Oui
same,Solubilité à température ambiante,"[3]; second study (Tableau 4), DMSO/H2O 85 % volumique, [Rapamycine] 4 mg/mL",Oui
same,Solubilité à température ambiante,"[3]; second study (Tableau 4), DMSO/H2O 100 % volumique, [Rapamycine] 0,4 mg/mL",Oui
same,Solubilité à température ambiante,"[3]; second study (Tableau 4), DMSO/H2O 100 % volumique, [Rapamycine] 1 mg/mL",Oui
same,Solubilité à température ambiante,"[3]; second study (Tableau 4), DMSO/H2O 100 % volumique, [Rapamycine] 4 mg/mL",Oui
same,concentration moyenne de rapamycine,[4],150 ± 30 ng/mL
same,inhibition at 0.2 µM,[5],38%
same,solubilité,[6],> 250 mg/mL
same,time after injection from which rapamycin is found in bile,"[7]; bile, increases during perfusion",1 heure
same,Tmax,"[7]; whole blood and plasma, 37°C, read-out: pic de concentration (time after injection) (converted)",5 min
